Test results reported in patent publication US9145391B2, “Bipyridylaminopyridines as Syk inhibitors” (Merck Sharp & Dohme Corp., priority 2011, dated 2015).

molecular target: recombinant human GST-Syk (Homo sapiens (Human), UniProt P43405); test: Homogeneous Time-Resolved Fluorescence (HTRF) assay for the recombinant human Syk enzyme; format: biochemical; conditions: recombinant human GST-Syk 5 pM, ATP 25 μM, read-out: rhSyk IC50
In short: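 Recombinant GST-hSyk fusion protein kinase activity was read by HTRF. Reactions were started with biotinylated substrate peptide at 250 nM final, Mg 5 mM final and ATP 25 μM final. Potency derived from inhibition of substrate phosphorylation.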

Q: For `Cc1cc(Nc2cc(C(F)(F)F)ccn2)nc(-c2ccc(NC3CCN(C(=O)Cc4ccc5ccn(C)c5c4)CC3)nc2)c1` [Example 4-2], which IC50 is on record?
A: 1 nM

Q: With `Cc1cc(Nc2cc(C(F)(F)F)ccn2)nc(-c2ccc(NC3CCN(C(=O)Cc4ccc5cn[nH]c5c4)CC3)nc2)c1` [Example 4-3] as the molecule, how does the IC50 read?
A: 8 nM

Q: Which IC50 does the source give for `Cc1cc(Nc2cc(C(F)(F)F)ccn2)nc(-c2ccc(NC3CCN(C(=O)c4ccc5c(c4)C(=O)NC5)CC3)nc2)c1` [Example 4-4] here?
A: 1 nM

Q: How did the IC50 turn out when `Cc1cc(Nc2cc(C(F)(F)F)ccn2)nc(-c2ccc(NC3CCN(C(=O)c4ccc5c(c4)CNC5=O)CC3)nc2)c1` [Example 4-5] was run?
A: 2 nM

Q: With `Cc1cc(Nc2cc(C(F)(F)F)ccn2)nc(-c2ccc(NC3CCN(C(=O)c4[nH]c5ccccc5c4C)CC3)nc2)c1` [Example 4-6] as the molecule, how does the IC50 read?
A: 22 nM

Q: How did the IC50 turn out when `Cc1cc(Nc2cc(C(F)(F)F)ccn2)nc(-c2ccc(NC3CCN(C(=O)c4ccc5[nH]cc(C)c5c4)CC3)nc2)c1` [Example 4-7] was run?
A: 10 nM

Q: Which IC50 does the source give for `Cc1cc(Nc2cc(C(F)(F)F)ccn2)nc(-c2ccc(NC3CCN(C(=O)Cc4n[nH]c5ccccc45)CC3)nc2)c1` [Example 4-8] here?
A: 7 nM

Q: Which IC50 does the source give for `Cc1cc(Nc2cc(C(F)(F)F)ccn2)nc(-c2ccc(NC3CCN(C(=O)c4cccc(-c5cn[nH]c5)c4)CC3)nc2)c1` [Example 4-9] here?
A: 12 nM

Q: `Cc1cc(Nc2cc(C(F)(F)F)ccn2)nc(-c2ccc(NC3CCN(C(=O)c4cc(-c5ccccc5)n[nH]4)CC3)nc2)c1` [Example 4-10] was tested. Which IC50 did it give?
A: 14 nM

Q: With `Cc1cc(Nc2cc(C(F)(F)F)ccn2)nc(-c2ccc(NC3CCN(C(=O)CCN4CCCC4=O)CC3)nc2)c1` [Example 4-11] as the molecule, how does the IC50 read?
A: 2 nM

Q: With `Cc1cc(Nc2cc(C(F)(F)F)ccn2)nc(-c2ccc(NC3CCN(C(=O)Cc4cccc5ncccc45)CC3)nc2)c1` [Example 4-12] as the molecule, how does the IC50 read?
A: 4 nM

Q: Which IC50 does the source give for `Cc1cc(Nc2cc(C(F)(F)F)ccn2)nc(-c2ccc(NC3CCN(C(=O)c4cccc5ncccc45)CC3)nc2)c1` [Example 4-13] here?
A: 9 nM

Q: How did the IC50 turn out when `Cc1cc(Nc2cc(C(F)(F)F)ccn2)nc(-c2ccc(NC3CCN(C(=O)c4ccc5sc(C)nc5c4)CC3)nc2)c1` [Example 4-14] was run?
A: 6 nM

Q: Which IC50 does the source give for `Cc1cc(Nc2cc(C(F)(F)F)ccn2)nc(-c2ccc(NC3CCN(C(=O)c4ccc5cc[nH]c5c4)CC3)nc2)c1` [Example 4-15] here?
A: 7 nM

Q: With `CC(=O)N1CCC(Nc2ccc(-c3cc(C)cc(Nc4cc(C(F)(F)F)ccn4)n3)cn2)CC1` [Example 4-16] as the molecule, how does the IC50 read?
A: 4 nM

Q: `Cc1cc(Nc2cc(C(F)(F)F)ccn2)nc(-c2ccc(N3CCCC(NC(=O)c4ccc5cc[nH]c5c4)C3)nc2)c1` (centres unmarked) [Example 4-17] was tested. Which IC50 did it give?
A: 32 nM

Q: `CC(=O)NC1CCCN(c2ccc(-c3cc(C)cc(Nc4cc(C(F)(F)F)ccn4)n3)cn2)C1` (centres unmarked) [Example 4-18] was tested. Which IC50 did it give?
A: 14 nM

Q: For `Cc1cc(Nc2cc(C(F)(F)F)ccn2)nc(-c2ccc(NC3CCN(C(=O)c4cccc(-c5ccncc5)c4)CC3)nc2)c1` [Example 4-19], which IC50 is on record?
A: 12 nM

Q: With `Cc1cc(Nc2cc(C(F)(F)F)ccn2)nc(-c2ccc(NC3CCN(C(=O)c4ccccc4N4CCN(C)CC4)CC3)nc2)c1` [Example 4-20] as the molecule, how does the IC50 read?
A: 4 nM

Q: Which IC50 does the source give for `Cc1cc(Nc2cc(C(F)(F)F)ccn2)nc(-c2ccc(NC3CCN(C(=O)c4cc5cccc(C)c5nc4C)CC3)nc2)c1` [Example 4-21] here?
A: 89 nM

Q: For `Cc1cc(Nc2cc(C(F)(F)F)ccn2)nc(-c2ccc(NC3CCN(C(=O)c4ccc(C(N)=O)cc4)CC3)nc2)c1` [Example 4-23], which IC50 is on record?
A: 3 nM

Q: `Cc1cc(Nc2cc(C(F)(F)F)ccn2)nc(-c2ccc(NC3CCN(C(=O)c4ccc5ccccc5n4)CC3)nc2)c1` [Example 4-24] was tested. Which IC50 did it give?
A: 7 nM

Q: Which IC50 does the source give for `Cc1cc(Nc2cc(C(F)(F)F)ccn2)nc(-c2ccc(NC3CCN(C(=O)COc4ccccc4-c4ccccc4)CC3)nc2)c1` [Example 4-25] here?
A: 209 nM

Q: How did the IC50 turn out when `Cc1cc(Nc2cc(C(F)(F)F)ccn2)nc(-c2ccc(NC3CCN(C(=O)c4ccccc4Cn4cncn4)CC3)nc2)c1` [Example 4-26] was run?
A: 7 nM

Q: With `Cc1cc(Nc2cc(C(F)(F)F)ccn2)nc(-c2ccc(NC3CCN(C(=O)c4cccc(C(N)=O)c4)CC3)nc2)c1` [Example 4-27] as the molecule, how does the IC50 read?
A: 3 nM

Q: How did the IC50 turn out when `Cc1cc(Nc2cc(C(F)(F)F)ccn2)nc(-c2ccc(NC3CCN(C(=O)c4cn[nH]c4-c4ccccc4)CC3)nc2)c1` [Example 4-28] was run?
A: 27 nM

Q: With `Cc1cc(Nc2cc(C(F)(F)F)ccn2)nc(-c2ccc(NC3CCN(C(=O)c4cccc(Cn5cccn5)c4)CC3)nc2)c1` [Example 4-29] as the molecule, how does the IC50 read?
A: 7 nM

Q: `Cc1cc(Nc2cc(C(F)(F)F)ccn2)nc(-c2ccc(NC3CCN(C(=O)c4nn(-c5ccccc5)nc4C)CC3)nc2)c1` [Example 4-30] was tested. Which IC50 did it give?
A: 137 nM

Q: Which IC50 does the source give for `Cc1cc(Nc2cc(C(F)(F)F)ccn2)nc(-c2ccc(NC3CCN(C(=O)c4ccnn4-c4ccccc4)CC3)nc2)c1` [Example 4-32] here?
A: 54 nM

Q: Which IC50 does the source give for `Cc1cc(Nc2cc(C(F)(F)F)ccn2)nc(-c2ccc(NC3CCN(C(=O)c4cccc5[nH]ccc45)CC3)nc2)c1` [Example 4-33] here?
A: 7 nM

Q: With `Cc1cc(Nc2cc(C(F)(F)F)ccn2)nc(-c2ccc(NC3CCN(C(=O)Cc4ccc5[nH]c(C)c(C)c5c4)CC3)nc2)c1` [Example 4-34] as the molecule, how does the IC50 read?
A: 8 nM

Q: For `Cc1cc(Nc2cc(C(F)(F)F)ccn2)nc(-c2ccc(NC3CCN(C(=O)c4nccc5ncccc45)CC3)nc2)c1` [Example 4-35], which IC50 is on record?
A: 3 nM

Q: How did the IC50 turn out when `Cc1cc(Nc2cc(C(F)(F)F)ccn2)nc(-c2ccc(NC3CCN(C(=O)c4cccc(-n5cccn5)c4)CC3)nc2)c1` [Example 4-36] was run?
A: 10 nM

Q: `Cc1cc(Nc2cc(C(F)(F)F)ccn2)nc(-c2ccc(NC3CCN(C(=O)c4cnn5cccnc45)CC3)nc2)c1` [Example 4-37] was tested. Which IC50 did it give?
A: 1 nM

Q: How did the IC50 turn out when `Cc1cc(Nc2cc(C(F)(F)F)ccn2)nc(-c2ccc(NC3CCN(C(=O)c4ccccc4N(C)C)CC3)nc2)c1` [Example 4-38] was run?
A: 40 nM

Q: For `Cc1cc(Nc2cc(C(F)(F)F)ccn2)nc(-c2ccc(NC3CCN(C(=O)c4cccc5cc(O)ccc45)CC3)nc2)c1` [Example 4-39], which IC50 is on record?
A: 7 nM

Q: With `Cc1cc(Nc2cc(C(F)(F)F)ccn2)nc(-c2ccc(NC3CCN(C(=O)c4cccc(C(F)(F)F)c4)CC3)nc2)c1` [Example 4-40] as the molecule, how does the IC50 read?
A: 102 nM

Q: For `Cc1cc(Nc2cc(C(F)(F)F)ccn2)nc(-c2ccc(NC3CCN(C(=O)Cc4ccc5ccccc5c4)CC3)nc2)c1` [Example 4-41], which IC50 is on record?
A: 58 nM

Q: `Cc1cc(Nc2cc(C(F)(F)F)ccn2)nc(-c2ccc(NC3CCN(C(=O)c4cccc(N(C)C)c4)CC3)nc2)c1` [Example 4-42] was tested. Which IC50 did it give?
A: 4 nM

Q: How did the IC50 turn out when `Cc1cc(Nc2cc(C(F)(F)F)ccn2)nc(-c2ccc(NC3CCN(C(=O)c4cccc5c4C(=O)c4ccccc4-5)CC3)nc2)c1` [Example 4-43] was run?
A: 29 nM

Q: How did the IC50 turn out when `Cc1cc(Nc2cc(C(F)(F)F)ccn2)nc(-c2ccc(NC3CCN(C(=O)c4ccc5cccnc5n4)CC3)nc2)c1` [Example 4-44] was run?
A: < 0.5 nM

Q: How did the IC50 turn out when `Cc1cc(Nc2cc(C(F)(F)F)ccn2)nc(-c2ccc(NC3CCN(C(=O)c4cccc5cccnc45)CC3)nc2)c1` [Example 4-45] was run?
A: 7 nM

Q: With `Cc1cc(Nc2cc(C(F)(F)F)ccn2)nc(-c2ccc(NC3CCN(C(=O)c4cccc(S(C)(=O)=O)c4)CC3)nc2)c1` [Example 4-46] as the molecule, how does the IC50 read?
A: 4 nM

Q: For `Cc1cc(Nc2cc(C(F)(F)F)ccn2)nc(-c2ccc(NC3CCN(C(=O)c4cc(-n5cccn5)ccc4Cl)CC3)nc2)c1` [Example 4-48], which IC50 is on record?
A: 30 nM

Q: Which IC50 does the source give for `Cc1cc(Nc2cc(C(F)(F)F)ccn2)nc(-c2ccc(NC3CCN(C(=O)c4ccc5ccccc5c4)CC3)nc2)c1` [Example 4-49] here?
A: 19 nM

Q: With `Cc1cc(Nc2cc(C(F)(F)F)ccn2)nc(-c2ccc(NC3CCN(C(=O)c4cccc(Oc5ccccc5)c4)CC3)nc2)c1` [Example 4-50] as the molecule, how does the IC50 read?
A: 97 nM

Q: With `Cc1cc(Nc2cc(C(F)(F)F)ccn2)nc(-c2ccc(NC3CCN(C(=O)c4cnc5ccc(C)cc5c4)CC3)nc2)c1` [Example 4-51] as the molecule, how does the IC50 read?
A: 10 nM

Q: With `Cc1cc(Nc2cc(C(F)(F)F)ccn2)nc(-c2ccc(NC3CCN(C(=O)Cc4cccc5ccccc45)CC3)nc2)c1` [Example 4-52] as the molecule, how does the IC50 read?
A: 53 nM

Q: `COc1ccc2cc(CC(=O)N3CCC(Nc4ccc(-c5cc(C)cc(Nc6cc(C(F)(F)F)ccn6)n5)cn4)CC3)ccc2c1` [Example 4-53] was tested. Which IC50 did it give?
A: 78 nM

Q: How did the IC50 turn out when `Cc1cc(Nc2cc(C(F)(F)F)ccn2)nc(-c2ccc(NC3CCN(C(=O)c4cccc5c4Cc4ccccc4-5)CC3)nc2)c1` [Example 4-54] was run?
A: 149 nM

Q: Which IC50 does the source give for `COc1ccc2cc(C(C)C(=O)N3CCC(Nc4ccc(-c5cc(C)cc(Nc6cc(C(F)(F)F)ccn6)n5)cn4)CC3)ccc2c1` (centres unmarked) [Example 4-55] here?
A: 223 nM

Q: With `CCc1ccc(OCC(=O)N2CCC(Nc3ccc(-c4cc(C)cc(Nc5cc(C(F)(F)F)ccn5)n4)cn3)CC2)cc1` [Example 4-56] as the molecule, how does the IC50 read?
A: 39 nM

Q: How did the IC50 turn out when `Cc1cc(Nc2cc(C(F)(F)F)ccn2)nc(-c2ccc(NC3CCN(C(=O)Cc4ccc(Oc5ccccc5)cc4)CC3)nc2)c1` [Example 4-57] was run?
A: 175 nM

Q: With `CC(=O)Nc1cccc(C(=O)N2CCC(Nc3ccc(-c4cc(C)cc(Nc5cc(C(F)(F)F)ccn5)n4)cn3)CC2)c1` [Example 4-58] as the molecule, how does the IC50 read?
A: 4 nM

Q: For `Cc1cc(Nc2cc(C(F)(F)F)ccn2)nc(-c2ccc(NC3CCN(C(=O)c4cccc5ccccc45)CC3)nc2)c1` [Example 4-59], which IC50 is on record?
A: 61 nM

Q: `Cc1cc(Nc2cc(C(F)(F)F)ccn2)nc(-c2ccc(NC3CCN(C(=O)c4cn(Cc5ccccc5)c5ccccc45)CC3)nc2)c1` [Example 4-60] was tested. Which IC50 did it give?
A: 422 nM

Q: `Cc1cc(Nc2cc(C(F)(F)F)ccn2)nc(-c2ccc(NC3CCN(C(=O)c4cc5ccccc5cn4)CC3)nc2)c1` [Example 4-61] was tested. Which IC50 did it give?
A: 4 nM

Q: `Cc1cc(Nc2cc(C(F)(F)F)ccn2)nc(-c2ccc(NC3CCN(C(=O)c4cccc(-c5cc[nH]n5)c4)CC3)nc2)c1` [Example 4-62] was tested. Which IC50 did it give?
A: 15 nM

Q: For `Cc1cc(Nc2cc(C(F)(F)F)ccn2)nc(-c2ccc(NC3CCN(C(=O)c4cnc5ccccn45)CC3)nc2)c1` [Example 4-63], which IC50 is on record?
A: 7 nM

Q: Which IC50 does the source give for `COc1c(C(=O)N2CCC(Nc3ccc(-c4cc(C)cc(Nc5cc(C(F)(F)F)ccn5)n4)cn3)CC2)ccc2ccccc12` [Example 4-64] here?
A: 83 nM

Q: For `Cc1cc(Nc2cc(C(F)(F)F)ccn2)nc(-c2ccc(NC3CCN(C(=O)c4nccc5ccccc45)CC3)nc2)c1` [Example 4-65], which IC50 is on record?
A: 20 nM

Q: With `Cc1cc(Nc2cc(C(F)(F)F)ccn2)nc(-c2ccc(NC3CCN(C(=O)c4ccnc5ccccc45)CC3)nc2)c1` [Example 4-66] as the molecule, how does the IC50 read?
A: 24 nM
